Data published in US20220175777A1, “Inhibitors of Multidrug Resistance Transporter P-Glycoprotein” (Southern Methodist University, priority 2014, published 2022).

Assays:
[1] = target: T1, Cysteineless Mouse MDR3 P-glycoprotein (Mus musculus, UniProt P21447, C1070A/C1121A/C1223A/C133A/C427A/C638A/C669A/C713A/C952A); assay: ATP hydrolysis by purified P-glycoprotein, basal and verapamil-stimulated; assay type: biochemical
T1 construct: made in house; host or cells: Pichia pastoris
Procedure, shortened: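 Cysteine-less mouse MDR3 P-gp (all Cys→Ala), expressed in Pichia pastoris and stabilised with phosphatidyl choline, was pre-incubated with compounds at 37 °C. ATP hydrolysis (2 mM ATP final, 20 min) measured via pyruvate kinase/lactate dehydrogenase-coupled NADH oxidation, with and without verapamil stimulation.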

P-gp = P-gp (Homo sapiens, UniProt P08183)
P-gp, sequence (P08183 whole entry): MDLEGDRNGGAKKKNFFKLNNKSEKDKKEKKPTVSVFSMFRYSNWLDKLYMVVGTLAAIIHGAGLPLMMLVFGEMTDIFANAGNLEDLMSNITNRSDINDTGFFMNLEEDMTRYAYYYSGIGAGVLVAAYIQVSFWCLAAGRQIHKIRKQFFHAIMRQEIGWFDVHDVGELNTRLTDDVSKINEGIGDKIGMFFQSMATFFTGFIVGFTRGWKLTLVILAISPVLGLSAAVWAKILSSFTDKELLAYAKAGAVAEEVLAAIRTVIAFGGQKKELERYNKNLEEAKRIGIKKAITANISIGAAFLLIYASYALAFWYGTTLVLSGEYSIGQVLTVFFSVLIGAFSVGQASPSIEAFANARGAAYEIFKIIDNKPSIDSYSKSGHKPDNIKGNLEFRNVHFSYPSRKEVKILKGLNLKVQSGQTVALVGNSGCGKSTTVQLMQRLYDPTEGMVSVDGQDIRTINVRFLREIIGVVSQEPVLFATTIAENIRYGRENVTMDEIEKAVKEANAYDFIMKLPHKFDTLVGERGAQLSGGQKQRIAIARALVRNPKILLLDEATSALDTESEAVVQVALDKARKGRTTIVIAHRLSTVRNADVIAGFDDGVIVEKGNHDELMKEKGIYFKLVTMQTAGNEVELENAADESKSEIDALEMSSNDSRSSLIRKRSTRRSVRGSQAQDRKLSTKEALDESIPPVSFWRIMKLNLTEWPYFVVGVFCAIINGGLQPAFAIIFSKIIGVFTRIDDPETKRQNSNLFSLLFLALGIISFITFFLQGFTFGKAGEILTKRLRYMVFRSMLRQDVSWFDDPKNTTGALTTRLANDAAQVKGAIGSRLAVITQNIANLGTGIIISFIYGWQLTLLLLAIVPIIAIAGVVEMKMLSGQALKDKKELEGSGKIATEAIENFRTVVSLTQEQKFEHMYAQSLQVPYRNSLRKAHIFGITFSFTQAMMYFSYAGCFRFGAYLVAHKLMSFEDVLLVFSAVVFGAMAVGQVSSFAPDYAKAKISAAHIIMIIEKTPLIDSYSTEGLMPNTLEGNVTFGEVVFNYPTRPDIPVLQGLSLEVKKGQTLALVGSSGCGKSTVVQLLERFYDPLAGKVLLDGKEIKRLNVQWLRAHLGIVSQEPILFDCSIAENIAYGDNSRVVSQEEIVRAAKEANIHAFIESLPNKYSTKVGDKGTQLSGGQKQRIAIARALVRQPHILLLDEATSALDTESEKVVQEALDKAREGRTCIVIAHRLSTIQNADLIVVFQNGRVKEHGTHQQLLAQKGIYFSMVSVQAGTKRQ
Experimental: Stimulation of basal ATPase by 29-variants was used as an indicator that a compound may be a P-gp transport substrate. Effects on stimulated P-gp ATPase activity indicated whether a compound directly interfered with ATP usage by the protein (***, p<0.001; **, p<0.01; *, p<0.1; NS, not significant). Quantitative cellular accumulation of 29-variants was performed using LC-MS/MS and is presented as a ratio of the cellular amounts of 29-variants in the presence of P-gp inhibitor, tariquidar, divided by amounts accumulated in its absence. […] Binding of an ATP analog, SL-ATP, to P-gp was used to determine whether ATP binding to P-gp was affected by the 29-variants. Values+/−standard deviations are shown for at least three different P-gp preparations and three independent SL-ATP titration experiments. The values for SL-ATP binding in the presence of 29 were taken directly from Brewer et al. (2014).
Intracellular accumulation of compound 29 variants. Cell accumulation assays for each of the 29 variants were performed as in reference^28 to more directly assess whether the compounds were indeed transport substrates for P-gp.

DU145 = assay: Intrinsic toxicity, MTT survival; assay type: cell-based; settings: Homo sapiens, DU-145, 48 hours, ± standard error
Experimental: Percent survival determined by MTT assay calculated relative to cells treated with equal volume DMSO vehicle and represent the mean±SEM from 2-4 separate studies, each study performed in triplicate wells.
The intrinsic in vitro toxicities of identified compounds were evaluated to determine their potential therapeutic window. This was assessed in a noncancerous cell line (HFL1) and the human prostate cancer cell lines DU145 and the MDR sub-line DU145TxR.

[2] = target: T1, Cysteineless Mouse MDR3 P-glycoprotein; assay: SL-ATP binding to P-gp by ESR spectroscopy; settings: 50 microM inhibitor compound
Procedure, shortened: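 Cysteine-free mouse P-gp (30–50 microM) incubated with 50 microM inhibitor, then titrated with spin-labelled ATP analogue SL-ATP. Bound SL-ATP calculated from high-field ESR signal of free SL-ATP versus no-protein control, giving binding stoichiometry and affinity; at least 3 studies on 3–5 P-gp preparations.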

DU145-TxR = assay: Re-sensitization to Paclitaxel or Doxorubicin at 25 μM compound (MTT); assay type: cell-based, human; settings: 48 hours
Experimental: FIGS. 3A-3B are plots that show an example of the re-sensitization of a multidrug resistant prostate cancer cell line to two different chemotherapeutics using the prostate cancer derived cell line, DU145 and the multidrug-resistant variant, DU145-TxR. […] Cell viability was measured by the MTT (3-(4,5-dimethylthiazol-2-yl)-2,5-diphenyl tetrazolium bromide assay conducted as described previously. After 48 hours of treatment with Paclitaxel or Doxorubicin alone or in the presence of 25 μM compound 29, 34, or 45 media was removed and cells were washed twice with phosphate buffered saline (PBS) and MTT assay was conducted 24 hours later. Data expressed as mean±SEM.

T1 sequence (P21447 whole entry C133A/C427A/C638A/C669A/C713A/C952A/C1070A/C1121A/C1223A): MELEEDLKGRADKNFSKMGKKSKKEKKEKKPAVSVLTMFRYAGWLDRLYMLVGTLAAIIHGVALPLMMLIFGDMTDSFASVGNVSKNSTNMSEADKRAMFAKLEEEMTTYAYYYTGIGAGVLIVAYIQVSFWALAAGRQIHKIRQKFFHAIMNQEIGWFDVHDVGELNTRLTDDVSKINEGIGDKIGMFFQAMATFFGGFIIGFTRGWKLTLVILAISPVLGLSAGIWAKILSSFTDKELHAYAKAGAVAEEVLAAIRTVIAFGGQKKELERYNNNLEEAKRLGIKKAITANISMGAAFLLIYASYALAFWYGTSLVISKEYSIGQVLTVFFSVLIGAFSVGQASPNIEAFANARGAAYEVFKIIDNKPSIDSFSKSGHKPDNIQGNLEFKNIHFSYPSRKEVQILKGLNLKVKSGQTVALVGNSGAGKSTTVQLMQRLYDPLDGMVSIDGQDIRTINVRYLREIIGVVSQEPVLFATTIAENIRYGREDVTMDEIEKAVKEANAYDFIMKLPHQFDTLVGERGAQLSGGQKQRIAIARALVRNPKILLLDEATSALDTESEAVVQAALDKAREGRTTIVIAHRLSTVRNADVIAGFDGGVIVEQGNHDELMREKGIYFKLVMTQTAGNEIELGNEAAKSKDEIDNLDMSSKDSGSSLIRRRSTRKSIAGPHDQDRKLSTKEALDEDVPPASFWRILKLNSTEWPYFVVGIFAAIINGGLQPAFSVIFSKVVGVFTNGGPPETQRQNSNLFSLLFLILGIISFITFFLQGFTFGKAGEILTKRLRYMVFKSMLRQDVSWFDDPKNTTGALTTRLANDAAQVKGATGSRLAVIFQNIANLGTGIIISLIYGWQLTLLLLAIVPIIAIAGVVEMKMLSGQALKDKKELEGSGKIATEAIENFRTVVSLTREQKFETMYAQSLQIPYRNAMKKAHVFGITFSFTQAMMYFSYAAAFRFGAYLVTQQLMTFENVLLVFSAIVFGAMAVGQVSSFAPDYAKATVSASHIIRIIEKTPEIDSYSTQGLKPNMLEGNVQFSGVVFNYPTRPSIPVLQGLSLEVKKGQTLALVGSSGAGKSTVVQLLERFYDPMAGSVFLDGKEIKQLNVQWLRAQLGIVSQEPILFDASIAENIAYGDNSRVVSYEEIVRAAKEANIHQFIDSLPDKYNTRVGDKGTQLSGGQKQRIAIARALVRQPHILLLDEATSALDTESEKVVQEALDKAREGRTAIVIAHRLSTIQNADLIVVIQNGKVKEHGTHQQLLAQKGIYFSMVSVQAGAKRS

Effect on stimulated ATPase ([1]; in the presence of verapamil): significantly inhibit
Stimulated ATPase (% of DMSO) ([1]; in the presence of verapamil, ± standard deviation): 49 ± 2 % of DMSO
Basal ATPase (% of DMSO) ([1]; without added transport substrate, ± standard deviation): 95 ± 11 % of DMSO
Intracellular accumulation in the presence versus absence of TQR (P-gp): no significant difference
Transport substrate for P-gp (P-gp; not told): not a transport substrate
Effect on SL-ATP binding [2]: decreased the SL-ATP binding affinities
SMILES: Cc1cc(C)c(-c2cc(NC(=O)CSc3n[nH]c(C4CC4)n3)n(-c3ccccc3)n2)cc1C [SMU-29, 2-[(5-cyclopropyl-1H-1,2,4-triazol-3-yl)sulfanyl]-N-[2-phenyl-5-(2,4,5-trimethylphenyl)pyrazol-3-yl]acetamide]
IC50 (DU145): 33.4 ± 0.01 µM
Chemotherapeutic sensitivity of MDR cell line (Paclitaxel or Doxorubicin) (DU145-TxR): restores chemotherapeutic sensitivity
